Values joined by “and” are separate entries in the source; they are usually repeats but may differ in a detail not shown here. Identical values can stand only once. Like-named read-outs stand apart in the source and are kept apart here.
Tests used:
Assay type in all cases: cell-based
[1] = test system: human embryonic stem cells line H1; conditions: for type of insulin expressing cells formed: 500 nM, after six days; for GCG (glucagon expressing cells), percentage of the total cell population / INS (single insulin expressing cells), percentage of the total cell population / INS/GCG (insulin and glucagon co-expressing cells), percentage of the total cell population / Synaptophysin, percentage of the total cell population: Stage 4 six days, TPB 500 nM, ILV 500 nM, GÖ 6976 5 μM, FACS
Method: Other protein kinase C activators were also tested. These were Indolactam V (ILV) (Axxora; Cat #ALX-420-011-C300) and phorbol-12-myristate-13-acetate (PMA) (Calbiochem; Cat #524400).

[2] = test system: human embryonic stem cells line H1; experiment: Immunocytochemistry of insulin and glucagon expression after Stage 4 TPB treatment (Example 1)
Method: Cells of the human embryonic stem cells line H1 were cultured on MATRIGEL® (1:30 dilution) (BD Biosciences; Cat #356231)-coated dishes with RPMI medium (Invitrogen; Cat #: 22400)+0.2% FBS+100 ng/ml activin A (PeproTech; Cat #120-14)+20 ng/ml WNT-3a (R&D Systems; Cat #1324-WN/CF) for one day followed by treatment with RPMI media+0.5% FBS+100 ng/ml activin A for an additional two days (Stage 1), then, • DMEM/F12 (Invitrogen; Cat #11330-032)+2% FBS+50 ng/ml FGF7 (PeproTech; Cat #100-19) for three days (Stage 2), then • DMEM-High glucose (Invitrogen; Cat #10569)+1% B27+50 ng/ml FGF7+0.25 μM Cyclopamine-KAAD (Calbiochem; Cat #239804)+100 ng/ml Noggin (R&D Systems; Cat #3344-NG) for four days (Stage 3), then • DMEM-High glucose+1% B27 (Invitrogen; Cat #0791)+100 ng/ml Noggin+1 μM ALK5 inhibitor II (Axxora; Cat #ALX-270-445)+500 nM TBP ((2S, 5S)-(E, E)-8-(5-(4-(Trifluoromethyl)phenyl)-2,4-pentadiemoylamino) benzolactam) (Calbiochem; Cat #565740) for six days (Stage 4).
As a control, separate populations of cells were treated with DMEM-High glucose+1% B27+100 ng/ml Noggin+1 μM ALK5 inhibitor II for six days (Stage 4, control group). […] Glucagon-expressing cells were also noted in the cultures that received TBP treatment. Most of the glucagon-expressing cells also co-expressed insulin (FIG. 1 panel A and B). […]

[3] = test system: human embryonic stem cells line H1; experiment: FACS and immunocytochemistry after Stage 4 treatment with different concentrations of TPB (Example 1); conditions: for INS, percentage of the total cell population / NKX6.1, percentage of the total cell population / NKX6.1/INS, percentage of the total cell population / Synaptophysin, percentage of the total cell population: Stage 4 six days
Method: In a separate experiment, cells of the human embryonic stem cells line H1 were cultured on MATRIGEL® (1:30 dilution) coated dishes with RPMI medium+0.2% FBS+100 ng/ml activin A+20 ng/ml WNT-3a for one day followed by treatment with RPMI media+0.5% FBS+100 ng/ml activin A for an additional two days (Stage 1), then • a. DMEM/F12+2% FBS+50 ng/ml FGF7 for three days (Stage 2), then • b. DMEM-High glucose+1% B27+0.25 μM Cyclopamine-KAAD+2 μM Retinoic acid (RA)+100 ng/ml of Noggin for four days (Stage 3), then • c. Treatment 1: DMEM-High glucose+1% B27+100 ng/ml Noggin+1 μM ALK5 inhibitor II+500 nM TBP for six days (Stage 4, Treatment 1), or • d. Treatment 2: DMEM-High glucose+1% B27+100 ng/ml Noggin+1 μM ALK5 inhibitor II+100 nM TBP for six days (Stage 4, Treatment 2), or • e. Treatment 3: DMEM-High glucose+1% B27+100 ng/ml Noggin+1 μM ALK5 inhibitor II+20 nM TBP for six days (Stage 4, Treatment 3), or • f. Treatment 4: DMEM-High glucose+1% B27+100 ng/ml Noggin+1 μM ALK5 inhibitor II for six days (Stage 4, Treatment 4).
Immunocytochemistry analysis was used to assess the effects of the different concentrations of TPB on the formation of the cells of the present invention. […] FACS analysis confirmed that both treatments gave rise to 12% single insulin expressing cells in vitro and […] of that population also expressed NKX6.1 (Table 1—NKX6.1/INS expressing cells were 2.4% of the total population).

[4] = test system: human embryonic stem cells line H1; experiment: FACS after six, nine or twelve days of Stage 4 TPB treatment (Example 3); conditions: 500 nM TPB
Method: In another experiment, cells of the human embryonic stem cells line H1 were cultured on […]® (1:30 dilution) coated dishes with RPMI medium+0.2% FBS+100 ng/ml activin A+20 ng/ml WNT-3a for one day followed by treatment with RPMI media+0.5% FBS+100 ng/ml activin A for an additional two days (Stage 1), then • DMEM/F12+2% FBS+50 ng/ml FGF7 for three days (Stage 2), then • DMEM-High glucose+1% B27+50 ng/ml FGF7+0.25 μM Cyclopamine-KAAD+2 μM Retinoic acid (RA)+100 ng/ml of Noggin+20 ng/ml Activin A+a p38 kinase inhibitor (JNJ3026582, at 2.5 μM) for four days (Stage 3), then • Treatment 10: DMEM-High glucose+1% B27+100 ng/ml Noggin+1 μM ALK5 inhibitor II+500 nM TPB for six days (Stage 4, Treatment 10), or • Treatment 11: DMEM-High glucose+1% B27+100 ng/ml Noggin+1 μM ALK5 inhibitor II+500 nM TPB for nine days (Stage 4, Treatment 11), or • Treatment 12: DMEM-High glucose+1% B27+100 ng/ml Noggin+1 μM ALK5 inhibitor II+500 nM TPB for twelve days (Stage 4, Treatment 12)

[5] = test system: human embryonic stem cell line H1; experiment: Pancreatic endoderm marker expression after Stage 3 TPB treatment (Example 6)
Method: Briefly, cells of the human embryonic stem cell line H1 were cultured on MATRIGEL® (1:30 dilution) coated dishes and RPMI medium supplemented with 0.2% FBS, 100 ng/ml activin A and 20 ng/ml WNT-3a for one day, followed by treatment with RPMI media supplemented with 0.5% FBS and 100 ng/ml activin A, for an additional two days (Stage 1), then • DMEM/F12+2% FBS+50 ng/ml FGF7 for three days (Stage 2), then • T1: DMEM-High glucose+1% B27+0.25 μM Cyclopamine-KAAD+2 μM Retinoic acid (RA)+100 ng/ml of Noggin+FGF10 50 ng/ml for four days (Stage 3, T1) or, • T2: DMEM-High glucose+1% B27+0.25 μM Cyclopamine-KAAD+2 μM Retinoic acid (RA)+100 ng/ml of Noggin+FGF10 50 ng/ml+100 nM TPB for four days (Stage 3, T2), then • DMEM-High glucose+1% B27+100 ng/ml Noggin+1 μM ALK5 inhibitor II for six days (Stage 4)
NKX6.1 was undetectable by immunohistochemistry.

[6] = both 500 nM and 100 nM TPB treatments, FACS
[7] = cultures treated with TPB, immunocytochemistry
[8] = Stage 4 for nine days (Treatment 11)
[9] = Stage 4 for six days (Treatment 10)
[10] = Stage 4 for twelve days (Treatment 12)
[11] = 100 nM TPB at Stage 3 for four days (T2) compared to control group (T1)

Compound: CC(C)[C@H]1C(=O)N[C@H](CO)Cc2c[nH]c3cccc(c23)N1C [ILV, Indolactam V]
- type of insulin expressing cells formed ([1]; immunocytochemistry): cells co-expressing insulin and glucagon
- GCG (glucagon expressing cells), percentage of the total cell population [1]: 12% and 12.6%
- INS (single insulin expressing cells), percentage of the total cell population [1]: 3%
- INS/GCG (insulin and glucagon co-expressing cells), percentage of the total cell population [1]: 12.9%
- Synaptophysin, percentage of the total cell population [1]: 56.8%

Compound: CCCCCCCCCCCCCC(=O)O[C@@H]1[C@@H](C)[C@@]2(O)[C@@H](C=C(CO)C[C@]3(O)C(=O)C(C)=C[C@@H]23)[C@@H]2C(C)(C)[C@]12OC(C)=O [PMA, phorbol-12-myristate-13-acetate]
- type of insulin expressing cells formed ([1]; immunocytochemistry): cells co-expressing insulin and glucagon

Compound: CC(C)[C@H]1C(=O)N[C@H](CO)Cc2cc(NC(=O)/C=C/C=C/c3ccc(C(F)(F)F)cc3)ccc2N1C [TPB, (2S, 5S)-(E, E)-8-(5-(4-(Trifluoromethyl)phenyl)-2,4-pentadiemoylamino) benzolactam]
- insulin-expressing cells ([2]; 500 nM at Stage 4 for six days with Noggin and ALK5 inhibitor II, vs control without it, immunocytochemistry): increase
- insulin expressing cells that are single endocrine hormone expressing cells (no glucagon, somatostatin, ghrelin) ([2]; 500 nM at Stage 4 for six days, share of insulin expressing cells): about 60%
- insulin and glucagon co-expression ([3]; 20 nM TPB, similar to the control group, immunocytochemistry): most cells co-expressed insulin and glucagon
- number of single insulin-expressing cells ([3]; 500 nM and 100 nM TPB treatment groups, immunocytochemistry): Significant increases
- INS, percentage of the total cell population ([3]; TPB 100 nM, FACS): 14.4%
- NKX6.1, percentage of the total cell population ([3]; TPB 100 nM, FACS): 34.8%
- NKX6.1/INS, percentage of the total cell population ([3]; TPB 100 nM, FACS): 3.1%
- Synaptophysin, percentage of the total cell population ([3]; TPB 100 nM, FACS): 47.6%
- INS, percentage of the total cell population ([3]; TPB 500 nM, FACS): 9.4%
- NKX6.1, percentage of the total cell population ([3]; TPB 500 nM, FACS): 45.7%
- NKX6.1/INS, percentage of the total cell population ([3]; TPB 500 nM, FACS): 2.4%
- Synaptophysin, percentage of the total cell population ([3]; TPB 500 nM, FACS): 38.3%
- single insulin expressing cells [3, 6]: 12%
- single insulin expressing population that also expressed NKX6.1 [3, 6]: 15%
- type of insulin expressing cells formed ([1]; immunocytochemistry): demonstrated the formation of single insulin expressing cells
- GCG (glucagon expressing cells), percentage of the total cell population [1]: 4.6%
- INS (single insulin expressing cells), percentage of the total cell population [1]: 12%
- INS/GCG (insulin and glucagon co-expressing cells), percentage of the total cell population [1]: 7.1%
- Synaptophysin, percentage of the total cell population [1]: 30.6%
- insulin expressing cells that co-expressed NEUROD [1, 7]: majority
- insulin expressing cells that co-expressed NKX6.1 [1, 7]: 20%
- insulin expressing cells that co-expressed PDX1 [1, 7]: 20%
- insulin expressing cells that co-expressed somatostatin or ghrelin (GHRL) [1, 7]: Very few
- Glucagon, percentage of the total cell population [4, 8]: 6.6%
- Insulin, percentage of the total cell population [4, 8]: 10.0%
- Insulin/Glucagon, percentage of the total cell population [4, 8]: 7.8%
- NKX6.1, percentage of the total cell population [4, 8]: 33.5%
- NKX6.1/Insulin, percentage of the total cell population [4, 8]: 1.0%
- Synaptophysin, percentage of the total cell population [4, 8]: 43.5%
- Glucagon, percentage of the total cell population [4, 9]: 2.0%
- Insulin, percentage of the total cell population [4, 9]: 27.8%
- Insulin/Glucagon, percentage of the total cell population [4, 9]: 16.4%
- NKX6.1, percentage of the total cell population [4, 9]: 44.2%
- NKX6.1/Insulin, percentage of the total cell population [4, 9]: 11.0%
- Synaptophysin, percentage of the total cell population [4, 9]: 49.7%
- Glucagon, percentage of the total cell population [4, 10]: 4%
- Insulin, percentage of the total cell population [4, 10]: 4.4%
- Insulin/Glucagon, percentage of the total cell population [4, 10]: 6.3%
- NKX6.1, percentage of the total cell population [4, 10]: 32.5%
- NKX6.1/Insulin, percentage of the total cell population [4, 10]: 1.0%
- Synaptophysin, percentage of the total cell population [4, 10]: 37.6%
- NKX6.1 by immunohistochemistry ([5]; 100 nM TPB at Stage 3 for four days (T2)): undetectable
- expression of NKX6.1 [5, 11]: significant down-regulation
- expression of PDX1 [5, 11]: significant down-regulation
- expression of PTF1 alpha [5, 11]: significant down-regulation
